The assay addresses T1, human CB2 receptors (Homo sapiens, UniProt P34972).
T1 construct: expressed in transfected cells
Kind of assay: Affinity for the human CB2 cannabinoid receptors: inhibition of [3H]-CP55940 binding to transfected CHO-K1 cell membranes. As to conditions: [3H]-CP55940 (1 nM), CHO-K1 membranes expressing human CB2; Cheng-Prusoff corrected; x = Ki below 50 nM. The procedure:
The affinity of the compounds of the present invention for the different sub-types of cannabinoid receptors was measured according to procedures analogous to those described hereafter for the human CB2 receptor.
Study of the Affinity of the Compounds for the Human CB2 Cannabinoid Receptors
The affinity of the compounds of the invention for the human CB2 receptors is determined by measuring the inhibition of the binding of [^3H]-CP55940 to transfected CHO-K1 cell membrane preparations.
The CHO-K1 cells expressing the human CB2 receptors in a stable fashion are cultured in an RPMI 1640 medium containing 10% foetal calf serum, 2 mM of glutamine, 100 U/ml of penicillin, 0.1 mg/ml of streptomycin and 0.5 mg/ml of G418. The cells are collected with 0.5 mM of EDTA and centrifuged at 500 g for 5 minutes at 4° C. The pellet is re-suspended in phosphate buffered saline medium (PBS) and centrifuged at 500 g for 5 minutes at 4° C. The pellet is re-suspended in a Tris 50 mM buffer medium at pH 7.4 and centrifuged at 500 g for 5 minutes at 4° C. The cells are lysed by sonication and centrifuged at 39,000 g for 10 minutes at 4° C. The pellet is re-suspended in the Tris 50 mM buffer medium at pH 7.4 and centrifuged at 50,000 g for 10 minutes at 4° C. The membranes obtained in this last pellet are stored at −80° C.
Measurement of the competitive inhibition of the binding of the [^3H]-CP55940 to the CB2 receptors is carried out in duplicate using 96-well polypropylene plates. The cell membranes (10 μg of proteins/well) are incubated with the [^3H]-CP55940 (1 nM) for 60 minutes at 25° C. in a Tris-HCl 50 mM buffer medium, pH 7.4, comprising 0.1% bovine serum albumin (BSA), 5 mM of MgCl2, and 50 μg/ml of bacitracin.
The bound [^3H]-CP55940 is separated from the free [^3H]-CP55940 by filtration through GF/C glass fibre filter plates (Unifilter, Packard) pre-impregnated with 0.1% polyethylenimine (P.E.I.), using a Filtermate 196 (Packard). The filters are washed with Tris-HCl 50 mM buffer, pH 7.4 at 0-4° C. and the radioactivity present is determined using a counter (Packard Top Count).
The specific binding is obtained by subtracting the non-specific binding (determined in the presence of 0.1 μM of WIN55212-2 from the total binding). The data are analyzed by computer-assisted non-linear regression (MDL). For each test, a Cheng-Prusoff correction is made in order to convert the IC50 to the inhibition constant, Ki.
where [L] is the concentration of the radioligand used in the test and Kd is the radioligand equilibrium dissociation constant.
T1 sequence (P34972 whole entry): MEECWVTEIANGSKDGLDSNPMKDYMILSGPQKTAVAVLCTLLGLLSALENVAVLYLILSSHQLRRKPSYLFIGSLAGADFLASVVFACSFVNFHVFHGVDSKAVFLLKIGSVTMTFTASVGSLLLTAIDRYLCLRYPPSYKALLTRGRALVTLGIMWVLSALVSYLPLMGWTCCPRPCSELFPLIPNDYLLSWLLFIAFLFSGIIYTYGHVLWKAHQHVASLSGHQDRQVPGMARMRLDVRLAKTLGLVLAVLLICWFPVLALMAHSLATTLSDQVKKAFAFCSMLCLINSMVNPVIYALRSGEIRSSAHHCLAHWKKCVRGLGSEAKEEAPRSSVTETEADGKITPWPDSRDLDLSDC
A word on the Ki: it is a dissociation constant, usually derived from enzyme kinetics or from competition with a known ligand. A high value points to a looser hold on the target. `CN1CCN(c2ccc(CN3C(=O)C(CC4CCCCC4)n4c3nc3ccccc3c4=O)cc2)CC1` (stereo not shown) [Example 1] registered a Ki below 0.05 µM.
In the case of `CN1CCN(c2ccc(CN3C(=O)C(c4ccc(-c5ccccc5)cc4)n4c3nc3ccccc3c4=O)cc2)CC1` (stereo not shown) [Example 2], the Ki was below 0.05 µM.
For `CN1CCN(c2ccc(CN3C(=O)C(CCC4CCCCC4)n4c3nc3ccccc3c4=O)cc2)CC1` (stereo not shown) [Example 4] the value was below 0.05 µM; for `CN1CCN(c2ccc(CN3C(=O)C(C4CCCCC4)n4c3nc3ccccc3c4=O)cc2)CC1` (stereo not shown) [Example 5], below 0.05 µM.
Then `CN1CCN(c2ccc(CN3C(=O)C(c4ccc5ccccc5c4)n4c3nc3ccccc3c4=O)cc2)CC1` (stereo not shown) [Example 8], with below 0.05 µM; and `CN1CCN(c2ccc(CN3C(=O)C(Cc4ccccc4)n4c3nc3ccccc3c4=O)cc2)CC1` (stereo not shown) [Example 12], with below 0.05 µM; and `CN1CCN(c2ccc(CN3C(=O)C4(Cc5ccccc5C4)n4c3nc3ccccc3c4=O)cc2)CC1` [Example 17], with below 0.05 µM.
For `CCCCC1(CCCC)C(=O)N(Cc2ccc(N3CCN(C)CC3)cc2)c2nc3ccccc3c(=O)n21` [Example 31] the value was below 0.05 µM; for `CN1CCN(c2ccc(CN3C(=O)CC(C)(C)n4c3nc3ccccc3c4=O)cc2)CC1` [Example 35], below 0.05 µM.
The molecule `CN1CCN(c2ccc(CN3C(=O)C(C)(C)Cn4c3nc3ccccc3c4=O)cc2)CC1` [Example 37] gave a Ki below 0.05 µM.
Turning to `CC(C)C[C@H]1CC(=O)N(Cc2ccc(N3CCN(C)CC3)cc2)c2nc3ccccc3c(=O)n21` [Example 38], the Ki was below 0.05 µM.
For the molecule `CC(C)CC1CC(=O)N(Cc2ccc(N3CCN(C)CC3)cc2)c2nc3ccccc3c(=O)n21` (stereo not shown) [Example 43], the Ki is below 0.05 µM.
For `CN1CCN(c2ccc(CN3C(=O)CC(c4ccccc4)n4c3nc3ccccc3c4=O)cc2)CC1` (stereo not shown) [Example 44] the value was below 0.05 µM; for `CN1CCN(c2ccc(CN3C(=O)CC(C4CCCCC4)n4c3nc3ccccc3c4=O)cc2)CC1` (stereo not shown) [Example 45], below 0.05 µM.
In turn, `CN1CCN(c2ccc(CN3C(=O)CC(Cc4ccccc4)n4c3nc3ccccc3c4=O)cc2)CC1` (stereo not shown) [Example 46] showed a Ki below 0.05 µM.
For `CN1CCN(c2ccc(CN3C(=O)CC(CCc4ccccc4)n4c3nc3ccccc3c4=O)cc2)CC1` (stereo not shown) [Example 48] the value was below 0.05 µM.

These data come from patent US20100144714A1, “DERIVATIVES OF IMIDAZO PYRIMIDO AND DIAZEPINE PYRIMIDINE-DIONE, AND USE THEREOF AS A DRUG” (SOCIETE DE CONSEILS DE RECHERCHES ET D'APPLICATIONS …, priority 2006, published 2010).
